Measured values from PMC9462664, “Preparation and identification of anti-breast cancer cells peptides released from yak milk casein” (Frontiers in Nutrition, 2022).
No end group written: not given here.

Columns and labels:
[1] = test system: pepsin and trypsin; assay: Stability against simulated gastrointestinal digestion; assay type: in vitro ADME; conditions: peptide 5 mg/mL, pepsin pH 1.2, 37°C, 2 h, then trypsin pH 8, 37°C, enzyme:peptide 1:100 (w/w), RP-HPLC, new peaks digested vs undigested
Description: Stability of peptides against simulated gastrointestinal digestion was performed according to the method outlined previously with slight modification ([19]). Briefly, peptide solution (5 mg/mL) was digested by pepsin (pH 1.2, 37°C) for 2 h. Then the pH of the resulting solution was altered to eight with NaOH (1.0°M) to inactivate pepsin, and the peptides solution was further digested by trypsin (2 h, 37°C). Finally, trypsin was inactivated by a hot water bath (95°C, 10 min). The ratio of enzyme to peptide was 1:100 (w/w) in the two digesting processes. The digested and undigested samples were loaded into HPLC (1260 Infinity, Agilent, Santa Clara, CA, United States), respectively, to evaluate the stability of the peptides. […]

[2] = test system: MCF7 cells; assay: Cell apoptosis determination (Annexin V/PI, flow cytometry); assay type: cell-based; conditions: 250 μg/mL, 48 h, Annexin-V and PI, mean ± SD
Description: (§1) Cell apoptosis determination was conducted by Annexin V staining of externalized phosphatidylserine in apoptotic cells using a cell apoptosis kit. Then the proportion of the apoptotic cells was analyzed by a BD flow cytometry (FACS101, Becton, Dickinson and Company, Franklin Lakes, NJ, United States).
(§2) FIGURE 7 TPVVVPPFL induced morphology alteration (A) and apoptosis of mammary carcinoma cells (B). MCF7 and MDA-MB-231 cells were incubated with TPVVVPPFL for 48 h at the concentration of 250 and 500°μg/mL, respectively. The image of the two cells was acquired by the inverted microscope, and the apoptotic cells were measured using a flow cytometry after treatment with Annexin-V and PI.

[3] = test system: MDA-MB-231 cells; assay: as above; assay type: cell-based; conditions: 500 μg/mL, 48 h, Annexin-V and PI, mean ± SD
Description: as §1, §2

[4] = test system: MCF7 cells; assay: Cell cycle determination (PI, flow cytometry); assay type: cell-based; conditions: 250 μg/mL, 48 h
Description: (§3) Cell cycle determination was conducted using a cell cycle kit according to its instructions. Trypsinized cells (MDA-MB-231 or MCF7) were pipetted into the 6-well plate and cultured. When cells confluence reached 50%, peptides were added to the wells, and the treatment lasted 48 h. The cells were harvested and washed with PBS. After being fixed by cold 75% ethanol, cells were treated with RNase A followed by incubation with PI. Finally, the cell cycles of samples were measured by a BD flow cytometer (FACS101, Becton, Dickinson and Company, Franklin Lakes, NJ, United States).
(§4) FIGURE 6 TPVVVPPFL elicited cell arrest of mammary carcinoma cells. MCF7 cells were incubated with TPVVVPPFL for 48 h at the concentration of 250°μg/mL. MDA-MB-231 cells were incubated with TPVVVPPFL for 48 h at the concentration of 500°μg/mL. The cell cycle distributions were analyzed using flow cytometry after treatment with PI.

[5] = test system: MDA-MB-231 cells; assay: Cell cycle determination (PI, flow cytometry); assay type: cell-based; conditions: 500 μg/mL, 48 h
Description: as §3, §4

[6] = test system: MCF7 cells; assay type: cell-based
Description: (§5) The culture medium of MDA-MB-231 and MCF7 cells were DMEM containing 10% FBS and 1% AAC. The culture medium of MCF10A was DMEM/F12 containing CT (100°ng/mL), EGF (20°ng/mL), HS (5%), hydrocortisone (0.5°μg/mL), and insulin (10°ug/mL). All the cells were incubated using an incubator (MCO-20AIC, SANYO, Japan) with 5% CO2 and 95% humidity at 37°C.
(§6) Cell activity inhibition was conducted using a CCK8 kit according to the procedure offered by the manufacturer. The trypsinized cells were transferred into the 96-well plate (8,000 cells/well) and cultured for 24 h, then they were incubated with PBS (Control), YMCH (250°μg/mL) or synthetic peptides (0, 62.5, 125, 250, 500, and 1,000°μg/mL) for 48 h or 24–72 h. The CCK8 agent (20°μL) was pipetted into the well followed by incubation (37 °C, 4 h). The absorbance of the medium was acquired at 450 nm using a microplate reader (Multiskan Spectrum, Thermo, Waltham, MA, United States). Finally, according to the below formulae, the cell viability and its inhibition rate were calculated.
(§7) Cellviability(%)=Absorbanceofmediumfromthetreatmentgroup/Absorbanceofmediumfromthecontrolgroup×100
(§8) Inhibitionrateofcellviability(%)=(1Absorbanceofmediumfromthetreatmentgroup/Absorbanceofmediumfromthecontrolgroup)×100

[7] = test system: MDA-MB-231 cells; assay type: cell-based
Description: as §5, §6, §7, §8

**Q.** With NQFLPYPY [NQFLPYPY] as the sequence, how does the “stability against simulated gastrointestinal digestion” value [1] read?
**A.** Its value is “stable in the simulated digestion condition”.

**Q.** What does the source list for TPVVVPPFL [TPVVVPPFL]?
**A.** stability against simulated gastrointestinal digestion [1]: stable in the simulated digestion condition; apoptosis rate [2]: 48.37 ± 2.74%; apoptosis rate [3]: 35.11 ± 2.95%; cell cycle arrest [4]: G2/M arrest; cell cycle arrest [5]: S arrest; IC50 [6]: 250 µg/mL; IC50 [7]: 500 µg/mL

**Q.** Which “stability against simulated gastrointestinal digestion” value [1] does the source give for VAPFPEVFGK [VAPFPEVFGK] here?
**A.** The value was “hydrolyzed”.
